One experiment concerns BG505 SOSIP.664. As to the kind of experiment: Competition ELISA, BG505 SOSIP.664 binding to CD4IgG2. The following applies: full dose response not achieved owing to solubility limits. Also noted: species or system HIV-1. (In an ELISA, binding on a coated surface is turned into a signal by an enzyme label.)
The subject of a further experiment is HIV-1YU2. The following applies: read-out: IC50 (HIV-1YU2); viral infectivity, HIV-1YU2 strain; cited from earlier work.
Another experiment has as its target core monomeric gp120. The following applies: binding affinity on gp120 core monomer; cited from earlier work.

What is called IC50 is the concentration at which inhibition is half-maximal. A word on the Kd: it is a measure of binding affinity in units of concentration.

Bounds are passed on as bounds.

For the compound `CC1(C)CC(NC(=O)C(=O)Nc2ccc(Cl)cc2)CC(C)(C)N1` [compound 1], in the experiment with BG505 SOSIP.664, the “inhibition of SOSIP trimer protein binding to sCD4 (in words)” value is “weaker inhibition”. In addition, the 50% inhibitory concentration (IC50) in the experiment with HIV-1YU2 was above 100000 nM. The Kd on core monomeric gp120 is 3700 nM.

For the compound `CN(Cc1ccc2c(c1)C[C@H](CN=C(N)N)[C@H]2NC(=O)C(=O)Nc1ccc(Cl)c(F)c1)C(=N)N` [compound 5], in the experiment with HIV-1YU2, the IC50 is 800 ± 100 nM. In addition, the Kd on core monomeric gp120 was 100 nM.
